Experimental data from patent US20220220152A1, “BIVALENT ANTAGONISTS OF INHIBITORS OF APOPTOSIS PROTEINS” (Hepagene Therapeutics (HK) Limited, priority 2019, published 2022).
pIC50: −log10 of the molar value.

Legend:
XIAP-BIR3 = molecular target: T1, XIAP-BIR3 (Homo sapiens, UniProt P98170); test: XIAP-BIR3 fluorescence polarization binding assay; conditions: FP, probe AbuRPFK-5FAM (SM5F) 5 nM, XIAP-BIR3 40 nM, 60 min at 25° C.
T1 construct: XIAP-BIR3; purchased Reaction Biology APT-11-374
Source text: (§1) IAPs are one main cause of cancer development and may result from overexpression of anti-apoptotic proteins. This protocol establishes three binding assays for […] Bir3 domain, cIAP1 and cIAP2 using FP (fluorescence polariation) technology. The fluorescence probe used is a synthetic peptide conjugated to 5-carboxyfluorescein (AbuRPFK-5FAM). The fluorescence polarization value (mP) was detected by Envision, which was used to reflect the binding degree of protein and fluorescent marker.
(§2) • a. Prepare 100 times of the final cpd concentration in appropriate tube and transfer 5 uL cpd to 45 μL 1× reaction buffer with 10% DMSO • b. The final reference cpd concentration is 10000, 3333.3, 1111.1, 370.4, 123.4, 41.2, 13.7, 4.57, 1.52, 0.51, 0.17 and 0 nM. So the 100 times of the concentration is 1000, 333.3, 111.1, 37.04, 12.34, 4.12, […], 0.15, 0.05, 0.017 and 0 μM. The final test cpds concentration is 3333.3, 1111.1, 370.4, 123.4, 41.2, 13.7, 4.57, 1.52, 0.51, 0.17, 0.057 and 0 nM. So the 100 times of the concentration is 333.3, 111.1, 37.04, 12.34, 4.12, […], 0.15, 0.05, 0.017, 0.0057 and […] • c. Add 8 μL/well each dose enzyme to 384 wen microplate (ProxiPlate-384 F Plus, 6008260) using multichannel pipette, prepared in Table 3. • d. Centrifuge at 1000 rpm • e. Add 2 μL/well cpd to 384 well microplate (ProxiPlate-384 F Plus, 6008260) using multichannel pipette, prepared in step a). • f. Centrifuge at 1000 rpm RT, 15 min. • g Start the assay by adding 10 uL/well substrate (prepared in Table 4) to the same 384 wen microplate using multichannel pipette. • h. Centrifuge at 1000 rpm. • i. Cover the assay plate and incubate for 60 min at 25° C. • j. Read on Envision 2104 for mP and plot the IC50s with mP values. • k. Data analysis: IC50s were determined based on a non-linear regression analysis of data collected.

cIAP1-BIR3 = molecular target: T2, cIAP1-BIR3 (Homo sapiens, UniProt Q13490); test: cIAP1-BIR3 fluorescence polarization binding assay; conditions: FP, probe AbuRPFK-5FAM (SM5F) 5 nM, cIAP1-BIR3 15 nM, 60 min at 25° C.
T2 construct: cIAP1-BIR3; purchased Reaction Biology APT-11-370
T2 sequence (Q13490 253-363 limits assumed): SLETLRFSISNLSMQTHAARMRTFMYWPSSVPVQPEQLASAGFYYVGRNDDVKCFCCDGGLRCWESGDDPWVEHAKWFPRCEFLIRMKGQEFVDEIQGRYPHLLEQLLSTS
Source text: as §1, §2

cIAP2-BIR3 = molecular target: T3, cIAP2-BIR3 (Homo sapiens, UniProt Q13489); test: cIAP2-BIR3 fluorescence polarization binding assay; conditions: FP, probe AbuRPFK-5FAM (SM5F) 5 nM, cIAP2-BIR3 80 nM, 60 min at 25° C.
T3 construct: cIAP2-BIR3; purchased Reaction Biology APT-11-372
T3 sequence (Q13489 238-349 limits assumed): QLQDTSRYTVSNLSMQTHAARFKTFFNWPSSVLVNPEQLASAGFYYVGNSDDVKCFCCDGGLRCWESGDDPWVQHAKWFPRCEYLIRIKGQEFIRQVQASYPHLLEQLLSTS
Source text: as §1, §2

T1 sequence (P98170 241-356 limits assumed): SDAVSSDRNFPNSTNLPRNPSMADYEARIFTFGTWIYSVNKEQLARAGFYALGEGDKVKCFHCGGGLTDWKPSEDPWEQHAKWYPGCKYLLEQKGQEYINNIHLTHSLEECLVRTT

| pIC50 (XIAP-BIR3) | pIC50 (cIAP1-BIR3) | pIC50 (cIAP2-BIR3) | Structure (SMILES) |
| --- | --- | --- | --- |
| 7.00 to 8.00 | 8.00 to 9.00 | 8.00 to 9.00 | CN[C@@H](C)C(=O)N[C@H](C(=O)N1CCC[C@H]1C(=O)N[C@@H]1CCCc2c(OCCCCCOc3cccc4c3CCC[C@H]4NC(=O)[C@@H]3CCCN3C(=O)[C@@H](NC(=O)[C@H](C)NC)C3CCOCC3)cccc21)C1CCOCC1 [Compound I-A, (S)-1-((S)-2-((S)-2-(methylamino)propanamido)-2-(tetrahydro-2H-pyran-4-yl)acetyl)-N—((R)-5-((5-(((R)-5-((S)-1-((S)-2-((S)-2-(methylamino)propanamido)-2-(tetrahydro-2H-pyran-4-yl)acetyl)pyrrolidine-2-carboxamido)-5,6,7,8-tetrahydronaphthalen-1-yl)oxy)pentyl)oxy)-1,2,3,4-tetrahydmnaphthalen-1-yl)pyrrolidine-2-carboxamide] |
| 7.00 to 8.00 | 8.00 to 9.00 | 7.00 to 8.00 | CN[C@@H](C)C(=O)N[C@H](C(=O)N1CCC[C@H]1C(=O)N[C@@H]1CCCc2c(NC(=O)c3cccc4c3CCC[C@H]4NC(=O)[C@@H]3CCCN3C(=O)[C@@H](NC(=O)[C@H](C)NC)C3CCOCC3)cccc21)C1CCOCC1 [Compound VII-B, (2S)-1[(2S)-2-[(2S)-2-(methylamino)propanamido]-2-(oxan-4-yl)acetyl]-N-[(1R)-5-[[(5R)-5-[(2S)-1[(2S)-2-[(2S)-2-(methylamino)propanamido]-2-(oxan-4-yl)acetyl]pyrrolidine-2-amido]-5,6,7,8-tetrahydronaphthalen-1-yl]carbamoyl]-1,2,3,4-tetrahydronaphthalen-1-yl]pyrrolidine-2-carboxamide] |
| < 6.00 | 7.00 to 8.00 | 6.00 to 7.00 | CN[C@@H](C)C(=O)N[C@H](C(=O)N1CCC[C@H]1C(=O)N[C@@H]1CCCc2ccc(N3CCN(c4ccc5c(c4)[C@H](NC(=O)[C@@H]4CCCN4C(=O)[C@@H](NC(=O)[C@H](C)NC)C4CCCCC4)CCC5)CC3)cc21)C1CCCCC1 [VIII-A, (2S)-1-[(2S)-2-cyclohexyl-2-[(2S)-2-(methylamino)propanamido]acetyl]-N-[(1R)-7-[4-[(8R)-8-[(2S)-1-[(2S)-2-cyclohexyl-2-[(2S)-2-(methylamino)propanamido]acetyl]pyrrolidine-2-amido]-5,6,7,8-tetrahydronaphthalen-2-yl]piperazin-1-yl]-1,2,3,4-tetrahydronaphthalen-1-yl]pyrrolidine-2-carboxamide] |
| 7.00 to 8.00 | 8.00 to 9.00 | 7.00 to 8.00 | CN[C@@H](C)C(=O)N[C@H](C(=O)N1CCC[C@H]1C(=O)N[C@@H]1CCCc2c(OCCOCCOc3cccc4c3CCC[C@H]4NC(=O)[C@@H]3CCCN3C(=O)[C@@H](NC(=O)[C@H](C)NC)C3CCOCC3)cccc21)C1CCOCC1 [Compound II-B, (2S)-1-[(2S)-2-[(2S)-2-(Methylamino)propanamido]-2-(oxan-4-yl)acetyl]-N-[(1R)-5-[2-(2-{[(5R)-5-[(2S)-1-[(2S)-2-[(2S)-2-(methylamino)propanamido]-2-(oxan-4-yl)acetyl]pyrrolidine-2-amido]-5,6,7,8-tetrahydronaphthalen-1-yl]oxy}ethoxy)ethoxy]-1,2,3,4-tetrahydronaphthalen-1-yl]pyrrolidine-2-carboxamide] |

| Structure (SMILES) | pIC50 (XIAP-BIR3) | pIC50 (cIAP1-BIR3) | pIC50 (cIAP2-BIR3) |
| --- | --- | --- | --- |
| CN[C@@H](C)C(=O)N[C@H](C(=O)N1CCC[C@H]1C(=O)N[C@@H]1CCCc2c(OCCc3ccc(CCOc4cccc5c4CCC[C@H]5NC(=O)[C@@H]4CCCN4C(=O)[C@@H](NC(=O)[C@H](C)NC)C4CCCCC4)cc3)cccc21)C1CCCCC1 [Compound IV, (2S)-1-[(2S)-2-Cyclohexyl-2-[(2S)-2-(methylamino)propanamido]acetyl]-N-[(1R)-5-[2-[4-(2-[[(5R)-5-[(2S)-1-[(2S)-2-cyclohexyl-2-[(2S)-2-(methylamino)propanamido]acetyl]pyrrolidine-2-amido]-5,6,7,8-tetrahydronaphthalen-1-yl]oxy]ethyl)phenyl]ethoxy]-1,2,3,4-tetrahydronaphthalen-1-yl]pyrrolidine-2-carboxamide] | 6.00 to 7.00 | 7.00 to 8.00 | 7.00 to 8.00 |
